pEC50: −log10 of the molar value.
System: Dkk1-LRP5-TCF-Luciferase
Test: Functional Dkk1-LRP5-TCF-Luciferase Assay in U2OS Cells
Conditions: for fold induction at 2 µM / pEC50 / fold induction at 20 µM: Homo sapiens, U2OS; for fold induction at 2 µM: read-out: B = TCF ACTIVITY/DMSO CONTROL Fold induction @ 2.0 uM, 2.0 uM compound; for fold induction at 20 µM: read-out: C = TCF ACTIVITY/DMSO CONTROL Fold induction @ 20.0 uM, 20.0 uM compound; for A = MAX FOLD Induction/DMSO CONTROL: maximum fold induction over DMSO control
Protocol: Biological Evaluation—Functional Dkk1-LRP5-TCF-Luciferase Assay in U2OS Cells
Frozen U2OS-Dkk1-HTS Reporter cells generation: U2OS Human Bone derived cells (Osteosarcoma) are grown in McCoy's 5A Medium (Modified), with L -glutamine (GIBCO Cat No. 16600-082)+1% Pen-Strep+5% FBS) plated at 1×10^7 cells/T175 cm flask. The next day, the cells are co-transfected overnight with the following plasmids: (a) Test reporter (16×TCF-TK-FireFly-Luci), (b) Internal Control Reporter (TK-Renilla-Luci), (c) Wnt3a and (d) Dkk1. GIBCO's Lipofectamine 2000 and OptiMEM are used for the transfection. After a minimum of 4 hr of transfection at 37° C., the plasmid-transfected cells are trypsinized, counted, and suspended in freezing medium (95% FBS+5% DMSO). The reporter cells are frozen at 1×10^7/ml concentrations, aliquoted into 0.5 ml or 2.5 ml/tube and stored at 70° C.
The following day, test compounds are added under HTS setup by Plate Track into 384 well plates (white, TC treated, Falcon plate) such that the final concentration of the compounds in 20 μL/well cell will be 5 μg/ml (final concentration of DMSO=0.25% and final compound concentration=20 μM). Vials of frozen reporter cells are thawed by warming the vial in a 37° C. water bath for 60-120 seconds with some shaking until the cells formed a suspension. The thawed cells are transferred into a cold 50 ml (or larger) tube and mixed well by gentle pipetting. The appropriate amount of cold Phenol Red Free RPMI medium-1640 (GIBCO, Cat #11835-030) with L-glutamine is added, both with ˜5% FBS (GIBCO-BRL, Cat. #16000-044), so that 20 μl of the final cell suspension will contain ˜5,000 cells. The cell dilution is done such that the final concentration of FBS is ˜5%.
Diluted cells (20 μl) are added into each well in a 384 well plate. The plate is incubated at 37° C. under 5% CO2 for ˜20 h. Bright-Glo substrate, 2.5 μl/well is added, and the Fire Fly Luciferase is measured using VLUX (60 second exposure) immediately after the substrate is added. Test compounds are dissolved in DMSO (100%) and added to specified wells. Raw luciferase signal data obtained as relative luminescence units (RLUs) for the test compounds are normalized to the signal of the mean of the sample reporter cell plate with DMSO.

Compound | fold induction at 2 µM | pEC50 | fold induction at 20 µM | A = MAX FOLD Induction/DMSO CONTROL
CCOC(=O)N(CCN1CCN(c2nccc(-c3ccc4ccccc4c3)n2)CC1)C(=O)OCC [diethyl (2-{4-[4-(2-naphthyl)pyrimidin-2-yl]piperazin-1-yl}ethyl)imidodicarbonate] | 1.72 | – | – | –
CCC(=O)N1CCCN(c2nccc(-c3ccc4ccccc4c3)n2)CC1 [1-[4-(2-naphthyl)pyrimidin-2-yl]-4-propionyl-1,4-diazepane] | – | 4.55 | 2.23 | 2.260 fold
OCC1CCCN([C@H]2CCN(c3nccc(-c4ccc5ccccc5c4)n3)C2)C1 (stereo partly drawn) [(1-{(3S)-1-[4-(2-naphthyl)pyrimidin-2-yl]pyrrolidin-3-yl}piperidin-3-yl)methanol] | 1.88 | – | 0.01 | –
c1ccc2cc(-c3ccnc(N4CC[C@@H](n5ccnc5)C4)n3)ccc2c1 [2-[(3R)-3-(1H-imidazol-1-yl)pyrrolidin-1-yl]-4-(2-naphthyl)pyrimidine] | 1.31 | – | 3.9 | 1.960 fold
NC(=O)N1CCCN(c2nccc(-c3ccc4ccccc4c3)n2)CC1 [4-[4-(2-naphthyl)pyrimidin-2-yl]-1,4-diazepane-1-carboxamide] | 1.5 | 6.49 | 1.79 | 2.050 fold
c1ccc2cc(-c3ccnc(NCCN4CCOCC4)n3)ccc2c1 [N-(2-morpholin-4-ylethyl)-4-(2-naphthyl)pyrimidin-2-amine] | 2.11 | 5.24 | 2.44 | 1.853 fold
COC(=O)N1CC[C@@H](Nc2nccc(-c3ccc4ccccc4c3)n2)C1 [methyl (3R)-3-{[4-(2-naphthyl)pyrimidin-2-yl]amino}pyrrolidine-1-carboxylate] | – | – | 2.35 | 1.360 fold
NC(=O)NCC1CCN(c2nccc(-c3ccc4ccccc4c3)n2)C1 (stereo not shown) [N-({1-[4-(2-naphthyl)pyrimidin-2-yl]pyrrolidin-3-yl}methyl)urea] | 1.14 | 4.71 | 2.34 | 1.720 fold
CC1CCN(c2nccc(-c3ccc4ccccc4c3)n2)CC1 [2-(4-methylpiperidin-1-yl)-4-(2-naphthyl)pyrimidine] | 1.51 | – | – | –
CCN(CC)C1CCN(c2nccc(-c3ccc4ccccc4c3)n2)C1 (stereo not shown) [N,N-diethyl-1-[4-(2-naphthyl)pyrimidin-2-yl]pyrrolidin-3-amine] | 1.06 | 4.55 | 2.67 | 3.680 fold
O[C@H]1CCN([C@@H]2CCN(c3nccc(-c4ccc5ccccc5c4)n3)C2)C1 [(3S,3′R)-1′-[4-(2-naphthyl)pyrimidin-2-yl]-1,3′-bipyrrolidin-3-ol] | – | – | 3 | –
CCNC(=O)N[C@H]1CC[C@H](Nc2nccc(-c3ccc4ccccc4c3)n2)CC1 [N-ethyl-N′-(trans-4-{[4-(2-naphthyl)pyrimidin-2-yl]amino}cyclohexyl)urea] | 2.84 | – | 2.35 | 2.740 fold
CC(=O)N(C)[C@@H]1CCN(c2nccc(-c3ccc4ccccc4c3)n2)C1 [N-methyl-N-{(3R)-1-[4-(2-naphthyl)pyrimidin-2-yl]pyrrolidin-3-yl}acetamide] | 1.55 | 5.00 | 2.71 | 2.285 fold
Cc1ccc(S(=O)(=O)NCC2CCN(c3nccc(-c4ccc5ccccc5c4)n3)CC2)cc1 [4-methyl-N-({1-[4-(2-naphthyl)pyrimidin-2-yl]piperidin-4-yl}methyl)benzenesulfonamide] | 1.07 | – | 0.41 | –
CCN(C)CCN(C)[C@@H]1CCN(c2nccc(-c3ccc4ccccc4c3)n2)C1 [N-ethyl-N,N′-dimethyl-N′-{(3R)-1-[4-(2-naphthyl)pyrimidin-2-yl]pyrrolidin-3-yl}ethane-1,2-diamine] | 1.8 | – | – | –
CC(=O)N1CCC(CNc2nccc(-c3ccc4ccccc4c3)n2)CC1 [N-[(1-acetylpiperidin-4-yl)methyl]-4-(2-naphthyl)pyrimidin-2-amine] | 1.02 | – | 1.33 | –
CC(=O)NCC1CCN(c2nccc(-c3ccc4ccccc4c3)n2)C1 (stereo not shown) [N-({1-[4-(2-naphthyl)pyrimidin-2-yl]pyrrolidin-3-yl}methyl)acetamide] | 0.95 | – | 1.5 | –
CN(C)[C@@H]1CCN(C(=O)[C@@H]2CCCN2c2nccc(-c3ccc4ccccc4c3)n2)C1 [(3R)—N,N-dimethyl-1-{1-[4-(2-naphthyl)pyrimidin-2-yl]-L-prolyl}pyrrolidin-3-amine] | 1.1 | – | 4.43 | 2.335 fold
O=CC1CCN(c2nccc(-c3ccc4ccccc4c3)n2)CC1 [1-[4-(2-naphthyl)pyrimidin-2-yl]piperidine-4-carbaldehyde] | 1.51 | – | 0.25 | –

Compound | fold induction at 2 µM | pEC50 | fold induction at 20 µM | A = MAX FOLD Induction/DMSO CONTROL
c1ccc2cc(-c3ccnc(N4CCC(CN5CCCC5)C4)n3)ccc2c1 (stereo not shown) [4-(2-naphthyl)-2-[3-(pyrrolidin-1-ylmethyl)pyrrolidin-1-yl]pyrimidine] | 1.87 | 5.12 | – | 7.000 fold
c1ccc2cc(-c3ccnc(N4CCC(CN5CCSCC5)C4)n3)ccc2c1 (stereo not shown) [4-({1-[4-(2-naphthyl)pyrimidin-2-yl]pyrrolidin-3-yl}methyl)thiomorpholine] | 1.9 | – | – | –
O=C(O)C1CCN(c2nccc(-c3ccc4ccccc4c3)n2)CC1 [1-[4-(2-naphthyl)pyrimidin-2-yl]piperidine-4-carboxylic acid] | 1.78 | – | 0.57 | –
CNCCN(C)[C@@H]1CCN(c2nccc(-c3ccc4ccccc4c3)n2)C1 [N,N′-dimethyl-N-{(3R)-1-[4-(2-naphthyl)pyrimidin-2-yl]pyrrolidin-3-yl}ethane-1,2-diamine] | 1.2 | – | – | –
NC[C@H]1CCCN(c2nccc(-c3ccc4ccccc4c3)n2)CC1 [1-{(4S)-1-[4-(2-naphthyl)pyrimidin-2-yl]azepan-4-yl}methanamine] | 3.86 | 5.97 | – | 3.640 fold
NC[C@@H]1C[C@@H]2C[C@H]1CN2c1nccc(-c2ccc3ccccc3c2)n1 [1-{(1R,4R,5R)-2-[4-(2-naphthyl)pyrimidin-2-yl]-2-azabicyclo[2.2.1]hept-5-yl}methanamine] | 1.4 | – | – | –
c1ccc2cc(-c3ccnc(NC[C@@H]4CCNC4)n3)ccc2c1 [4-(2-naphthyl)-N-[(3R)-pyrrolidin-3-ylmethyl]pyrimidin-2-amine] | – | 5.41 | 0.06 | 7.510 fold
CC(=O)NCCC1CCN(c2nccc(-c3ccc4ccccc4c3)n2)CC1 [N-(2-{1-[4-(2-naphthyl)pyrimidin-2-yl]piperidin-4-yl}ethyl)acetamide] | 2.27 | – | 1 | 1.360 fold
CN(C)CCN(C)[C@H]1CCN(c2nccc(-c3ccc4ccccc4c3)n2)C1 [N,N,N′-trimethyl-N′-{(3S)-1-[4-(2-naphthyl)pyrimidin-2-yl]pyrrolidin-3-yl}ethane-1,2-diamine] | 1.2 | – | – | –
NCC1CCN(C(=O)c2nccc(-c3ccc4ccccc4c3)n2)CC1 [1-(1-{[4-(2-naphthyl)pyrimidin-2-yl]carbonyl}piperidin-4-yl)methanamine] | 0.46 | – | 1.42 | 1.380 fold
O=C(c1ccco1)N1CCN(c2nccc(-c3ccc4ccccc4c3)n2)CC1 [2-[4-(2-furoyl)piperazin-1-yl]-4-(2-naphthyl)pyrimidine] | 1.49 | – | 3.62 | 1.630 fold
Cc1ccc(S(=O)(=O)N2CCC(CNc3nccc(-c4ccc5ccccc5c4)n3)CC2)cc1 [N-({1-[(4-methylphenyl)sulfonyl]piperidin-4-yl}methyl)-4-(2-naphthyl)pyrimidin-2-amine] | 1.17 | – | 0.92 | –
CC(NC(=O)OC(C)(C)C)C1CCN(c2nccc(-c3ccc4ccccc4c3)n2)CC1 (stereo not shown) [tert-butyl (1-{1-[4-(2-naphthyl)pyrimidin-2-yl]piperidin-4-yl}ethyl)carbamate] | – | – | 0.81 | –
CN1CCN(c2nccc(-c3ccc4ccccc4c3)n2)CC1 [2-(4-methylpiperazin-1-yl)-4-(2-naphthyl)pyrimidine] | 1.16 | 4.81 | 1.81 | 2.960 fold
CN1CCN(C[C@@H]2CCN(c3nccc(-c4ccc5ccccc5c4)n3)C2)CC1 [2-{(3S)-3-[(4-methylpiperazin-1-yl)methyl]pyrrolidin-1-yl}-4-(2-naphthyl)pyrimidine] | 1.8 | – | – | –
CCCOc1ccc2cc(-c3ccnc(N4CCC(CN)CC4)n3)ccc2c1 [1-{1-[4-(6-propoxy-2-naphthyl)pyrimidin-2-yl]piperidin-4-yl}methanamine] | 1.33 | – | – | –
CN(C)CCCN(C)[C@H]1CCN(c2nccc(-c3ccc4ccccc4c3)n2)C1 [N,N,N′-trimethyl-N′-{(3S)-1-[4-(2-naphthyl)pyrimidin-2-yl]pyrrolidin-3-yl}propane-1,3-diamine] | 2 | – | – | –
Cc1ccc(S(=O)(=O)N2CC[C@@H](Nc3nccc(-c4ccc5ccccc5c4)n3)C2)cc1 [N-{(3R)-1-[(4-methylphenyl)sulfonyl]pyrrolidin-3-yl}-4-(2-naphthyl)pyrimidin-2-amine] | – | – | 1.58 | –
c1cnc(NCC2CCN(c3nccc(-c4ccc5ccccc5c4)n3)CC2)nc1 [N-({1-[4-(2-naphthyl)pyrimidin-2-yl]piperidin-4-yl}methyl)pyrimidin-2-amine] | 1.28 | – | 1.48 | –

Source: US20090054392A1, “NAPHTHYLPYRIMIDINE, NAPHTHYLPYRAZINE AND NAPHTHYLPYRIDAZINE ANALOGS AND THEIR USE AS AGONISTS OF THE WNT-BETA-CATENIN CELLULAR MESSAGING SYSTEM” (Wyeth, priority 2007, published 2009)
